# According to ChEMBL document CHEMBL4270590, “Azulene-based compounds for targeting orexin receptors” (Eur J Med Chem, 2018):
# Activity calls are given as the source filed them. The calls are words filed in the database; no cut-off is given here.
# Legend:
# [1] = target: T1, Orexin receptor type 2 (Homo sapiens) (UniProt O43614); test: Agonist activity at human OX2 receptor expressed in CHOK1 cells assessed as increase in calcium accumulation at 10 uM incubated for 30 mins measured for 150 secs by calcium-4 dye based FLIPR assay relative to orexin-A; assay type: functional, cell-based
# T1 sequence (whole entry): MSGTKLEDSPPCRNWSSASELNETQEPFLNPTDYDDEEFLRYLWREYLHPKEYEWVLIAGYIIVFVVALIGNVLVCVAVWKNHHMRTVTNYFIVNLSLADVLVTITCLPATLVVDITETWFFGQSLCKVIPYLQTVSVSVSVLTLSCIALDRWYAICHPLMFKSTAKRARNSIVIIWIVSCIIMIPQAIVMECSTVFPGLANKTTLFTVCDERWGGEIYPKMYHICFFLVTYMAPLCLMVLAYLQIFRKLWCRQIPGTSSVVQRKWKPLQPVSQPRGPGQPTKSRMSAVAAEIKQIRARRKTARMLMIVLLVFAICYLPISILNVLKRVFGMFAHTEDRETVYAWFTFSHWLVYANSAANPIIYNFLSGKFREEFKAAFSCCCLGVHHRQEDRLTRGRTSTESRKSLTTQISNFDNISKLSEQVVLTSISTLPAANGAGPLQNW
# [2] = target: T1, Orexin receptor type 2 (Homo sapiens); test: Displacement of [125I]-orexin-A from human OX2 receptor expressed in CHOK1 cells at 10 uM incubated for 10 mins and measured after 90 mins by liquid scintillation counting method relative to control; assay type: cell-based
# [3] = target: T2, Orexin/Hypocretin receptor type 1 (Homo sapiens) (UniProt O43613); test: Agonist activity at human OX1 receptor expressed in CHOK1 cells assessed as increase in calcium accumulation at 10 uM incubated for 30 mins measured for 150 secs by calcium-4 dye based FLIPR assay relative to orexin-A; assay type: functional, cell-based
# T2 sequence (whole entry): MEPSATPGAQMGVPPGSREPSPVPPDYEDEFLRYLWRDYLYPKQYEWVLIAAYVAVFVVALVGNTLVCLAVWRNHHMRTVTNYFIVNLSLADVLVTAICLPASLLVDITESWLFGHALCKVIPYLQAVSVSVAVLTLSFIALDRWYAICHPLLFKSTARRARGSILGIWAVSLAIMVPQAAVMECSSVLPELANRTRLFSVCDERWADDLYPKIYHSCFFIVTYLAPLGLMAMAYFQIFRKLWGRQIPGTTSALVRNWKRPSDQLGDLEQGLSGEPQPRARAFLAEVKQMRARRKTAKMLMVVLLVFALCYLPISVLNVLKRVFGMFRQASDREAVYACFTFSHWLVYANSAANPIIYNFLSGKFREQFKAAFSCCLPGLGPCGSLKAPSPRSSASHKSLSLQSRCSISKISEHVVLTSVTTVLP
# [4] = target: T2, Orexin/Hypocretin receptor type 1 (Homo sapiens); test: Displacement of [125I]-orexin-A from human OX1 receptor expressed in CHOK1 cells at 10 uM incubated for 10 mins and measured after 90 mins by liquid scintillation counting method relative to control; assay type: cell-based
# [5] = system: CHO-K1; test: Effect on ATP-induced intracellular calcium accumulation in CHOK1 cells expressing human OXR at 10 uM incubated for 30 mins and measured for 150 secs by calcium-4 dye based FLIPR assay; assay type: functional, cell-based; settings: Cricetulus griseus
# [6] = target: T1, Orexin receptor type 2 (Homo sapiens); test: Allosteric agonist activity at human OX2 receptor expressed in CHOK1 cells assessed as potentiation of orexin-A induced calcium accumulation at 10 uM preincubated for 30 mins followed by orexin-A addition and measured for 150 secs by calcium-4 dye based FLIPR assay relative to control; assay type: functional, cell-based
# [7] = target: T2, Orexin/Hypocretin receptor type 1 (Homo sapiens); test: Allosteric agonist activity at human OX1 receptor expressed in CHOK1 cells assessed as potentiation of orexin-A induced calcium accumulation at 10 uM preincubated for 30 mins followed by orexin-A addition and measured for 150 secs by calcium-4 dye based FLIPR assay relative to control; assay type: functional, cell-based
# [8] = target: T2, Orexin/Hypocretin receptor type 1 (Homo sapiens); test: Agonist activity at human OX1 receptor expressed in CHOK1 cells assessed as increase in calcium accumulation at 10 uM incubated for 30 mins measured for 150 secs in presence of OX1R antagonist SB-334867 by calcium-4 dye based FLIPR assay; assay type: functional, cell-based
# [9] = target: T1, Orexin receptor type 2 (Homo sapiens); test: Agonist activity at human OX2 receptor expressed in CHOK1 cells assessed as increase in calcium accumulation at 10 uM incubated for 30 mins measured for 150 secs in presence of OX2R antagonist TCS-1102 by calcium-4 dye based FLIPR assay; assay type: functional, cell-based
# [10] = Solubility of the compound in water; assay type: physicochemical; settings: buffer
# [11] = target: T2, Orexin/Hypocretin receptor type 1 (Homo sapiens); test: Allosteric agonist activity at human OX1 receptor expressed in CHOK1 cells assessed as potentiation of orexin-A induced calcium accumulation preincubated for 30 mins followed by orexin-A addition and measured for 150 secs by calcium-4 dye based FLIPR assay; assay type: functional, cell-based
# [12] = target: T1, Orexin receptor type 2 (Homo sapiens); test: Allosteric agonist activity at human OX2 receptor expressed in CHOK1 cells assessed as potentiation of orexin-A induced calcium accumulation preincubated for 30 mins followed by orexin-A addition and measured for 150 secs by calcium-4 dye based FLIPR assay; assay type: functional, cell-based
# [13] = target: T3, Orexin/Hypocretin receptor type 1 (Homo sapiens, UniProt O43613); test: Antagonist activity at human OX1 receptor expressed in CHOK1 cells assessed as inhibition of orexin-A-induced calcium accumulation preincubated for 30 mins followed by orexin-A addition measured for 150 secs by calcium-4 dye based FLIPR assay; assay type: functional, cell-based; settings: read-out: Ki(app)
# T3 sequence (O43613 whole entry): T2 sequence (whole entry)
# [14] = target: T4, Orexin receptor type 2 (Homo sapiens, UniProt O43614); test: Antagonist activity at human OX2 receptor expressed in CHOK1 cells assessed as inhibition of orexin-A-induced calcium accumulation preincubated for 30 mins followed by orexin-A addition measured for 150 secs by calcium-4 dye based FLIPR assay; assay type: functional, cell-based; settings: read-out: Ki(app)
# T4 sequence (O43614 whole entry): T1 sequence (whole entry)
# [15] = Colloidal aggregating behavior of the compound at 1 to 30 uM by nephelometric method; assay type: physicochemical
SMILES,Emax [1] [%],inhibition [2] [%],Emax [3] [%],inhibition [4] [%],Activity [5],fold change (FC) [6],fold change (FC) [7],further results
O=C(Oc1ccc2ccc(Cl)ccc1-2)c1cccs1,-2.7,33.2,0.91,9.8,,,,
COC(=O)c1cc(C=O)c2ccc(/C=C/c3cnc[nH]3)ccc1-2,0.4,39.9,2.35,23,,,,
O=C(O)c1ccc2ccc(C(=O)c3ccccc3)c-2cc1,2.29,32.9,2.16,11,inactive,0.98,1.52,
O=C(O)Cc1ccc2ccc(C(=O)c3ccc(C(F)(F)F)cc3)c-2cc1,-1.06,11.2,0.22,8.6,inactive,0.98,1.5,
O=C(O)c1cccc2c(C(=O)c3ccccc3)cc(C(=O)c3ccc(C(Cl)(Cl)Cl)cc3)c-2c1,-3.18,25.6,-1.38,19.9,,,,
O=Cc1ccc2ccc(C(=O)O)ccc1-2,3.47,44.1,1.75,37.8,,,,
O=C(Oc1ccc2ccc(Cl)ccc1-2)c1cccnc1,-2.65,32.3,0.6,-2.4,,,,
COC(=O)c1ccc2c(C=O)cc(-c3ccccc3)c-2cc1,-0.27,1.8,0.8,8.5,,,,
NC(=O)c1ccc2c(C=O)cc(-c3ccccc3)c-2cc1,1.71,16.7,0.64,6.1,,,,
O=C(O)c1cccc2c(C(=O)c3ccccc3)cc(C(=O)c3ccc(C(F)(F)F)cc3)c-2c1,-3.18,26.4,-1.38,18.3,,,,
COC(=O)c1cccc2c(C(=O)c3ccccc3)cc(C(=O)c3ccc(C(Cl)(Cl)Cl)cc3)c-2c1,-0.14,27,0.69,10.4,,,,
O=C(O)c1ccc2ccc(C(=O)c3ccc(C(F)(F)F)cc3)c-2cc1,2.96,1,1.09,,inactive,0.9,1.53,
COC(=O)c1cccc2c(C(=O)c3ccccc3)cc(C(=O)c3ccc(C(F)(F)F)cc3)c-2c1,-0.14,27,0.69,10.4,,,,
COC(=O)Cc1ccc2ccc(C(=O)c3ccccc3)c-2cc1,11,-4.3,5.01,,inactive,0.97,1.86,Activity [8]: inactive; Activity [9]: inactive
COC(=O)CCC(=O)Oc1ccc2ccc(Cl)ccc1-2,-2.13,24.3,0.73,8,,,,
Cc1ccc2ccc(C(=O)c3ccc(C(F)(F)F)cc3)c-2cc1,-0.44,31,0.61,38.3,,,,

SMILES,Emax [1] [%],inhibition [2] [%],Emax [3] [%],inhibition [4] [%],Activity [5],fold change (FC) [6],fold change (FC) [7],further results
O=Cc1cc(-c2ccccc2)c2ccc(C(=O)O)ccc1-2,-0.21,21.5,0.8,16.2,,,,
COC(=O)c1ccc2c(I)cc(C(=O)c3ccccc3)c-2cc1,-0.25,-5.4,1.17,,inactive,1.02,1.99,solubility [10]: Insoluble; Activity [11]: Dose-dependent effect; Activity [12]: Dose-dependent effect
COC(=O)c1ccc2ccc(C(=O)c3ccccc3)c-2cc1,4.92,28.9,4.15,7.2,inactive,0.79,1.64,
CCOc1ccc(-c2cc(C(=O)c3ccccc3)c3ccc(C(=O)O)ccc2-3)cc1,-0.99,,-0.17,,inactive,0.76,1.01,Ki [13]: 3.1 to 7.5 µM; Ki [14]: 3.2 to 4.9 µM; Activity [15]: Not Active
COC(=O)c1ccc2c(C(=O)c3ccccc3)cc(C(=O)c3ccccc3)c-2cc1,-1.51,,-0.56,,inactive,0.88,1.97,solubility [10]: Insoluble; Activity [11]: Dose-dependent effect; Activity [12]: Dose-dependent effect
COC(=O)c1ccc2ccc(C=O)c-2cc1,2.26,37.2,3.06,25,,,,
NC(=O)c1ccc2ccc(C(=O)c3ccccc3)c-2cc1,1.32,18,0.42,13.6,,,,
COC(=O)c1ccc2ccc(C(=O)c3ccc(C(F)(F)F)cc3)c-2cc1,12.4,,6.13,,inactive,0.86,1.59,Activity [8]: inactive; Activity [9]: inactive
COC(=O)Cc1ccc2c(C(=O)c3ccccc3)cc(C(=O)c3ccccc3)c-2cc1,0.05,,0.28,,inactive,1.06,1.68,
O=C(Oc1ccc2ccc(Cl)ccc1-2)c1ccccc1,-3.3,34.3,0.08,0.1,,,,
O=C(OCc1ccccc1)Oc1ccc2ccc(Cl)ccc1-2,-2.71,35.6,0.46,18.2,,,,
O=C(O)c1ccc2c(C(=O)c3ccccc3)cc(C(=O)c3ccccc3)c-2cc1,-2.09,27,-1.39,,inactive,0.75,1.42,
COC(=O)c1cc(CN2CCOCC2)c2ccc(Cl)ccc1-2,-0.98,46.7,0.42,24.5,,,,Ki [13]: 5.4 to 7.6 µM; Ki [14]: 4.3 to 8.6 µM; Activity [15]: Not Active
CCOc1ccc(-c2cc(C(=O)c3ccccc3)c3ccc(C(=O)OC)ccc2-3)cc1,-0.24,19.1,1.49,8.4,,,,
CC(C)(C)OC(=O)NCC(=O)Oc1ccc2ccc(Cl)ccc1-2,-1.01,36,1.62,-4.5,,,,
